{"source": "ChEMBL document CHEMBL4699665", "about": "“Discovery of ANT3310, a Novel Broad-Spectrum Serine β-Lactamase Inhibitor of the Diazabicyclooctane Class, Which Strongly Potentiates Meropenem Activity against Carbapenem-Resistant Enterobacterales and Acinetobacter baumannii” (J Med Chem, 2020)", "key": {"Enterobacter [1]": {"system": "Enterobacter", "test": "Inhibition of beta lactamase KPC in carbapenem-resistant Enterobacter assessed as meropenem maximum concentration required for antibacterial activity at 4 ug/ml by broth microdilution method (Rvb >32 ug/ml)", "conditions": "dose 4.0 µg/ml"}, "[2]": {"test": "Stability in human plasma assessed as parent compound remaining after 1 hr", "format": "ADME, cell-free", "conditions": "read-out: Stabilty"}, "Klebsiella pneumoniae [3]": {"system": "Klebsiella pneumoniae", "test": "Potentiation of meropenem-induced antibacterial activity against Klebsiella pneumoniae expressing SHV-11/OXA-121 assessed as meropenem MIC at 4 ug/ml by broth microdilution method (reference value: 16 ug/ml)", "format": "functional", "conditions": "dose 4 µg/ml"}, "[4]": {"test": "Inhibition of beta lactamase OXA-48 in Enterobacter cloacae assessed as decrease in enzyme activity using nitrocefin as substrate preincubated for 10 mins followed by substrate addition measured for 10 mins by fluorescence plate reader analysis"}, "Cytochrome P450 2C9": {"target": "Cytochrome P450 2C9 (Homo sapiens, UniProt P11712)", "sequence (P11712 whole entry)": "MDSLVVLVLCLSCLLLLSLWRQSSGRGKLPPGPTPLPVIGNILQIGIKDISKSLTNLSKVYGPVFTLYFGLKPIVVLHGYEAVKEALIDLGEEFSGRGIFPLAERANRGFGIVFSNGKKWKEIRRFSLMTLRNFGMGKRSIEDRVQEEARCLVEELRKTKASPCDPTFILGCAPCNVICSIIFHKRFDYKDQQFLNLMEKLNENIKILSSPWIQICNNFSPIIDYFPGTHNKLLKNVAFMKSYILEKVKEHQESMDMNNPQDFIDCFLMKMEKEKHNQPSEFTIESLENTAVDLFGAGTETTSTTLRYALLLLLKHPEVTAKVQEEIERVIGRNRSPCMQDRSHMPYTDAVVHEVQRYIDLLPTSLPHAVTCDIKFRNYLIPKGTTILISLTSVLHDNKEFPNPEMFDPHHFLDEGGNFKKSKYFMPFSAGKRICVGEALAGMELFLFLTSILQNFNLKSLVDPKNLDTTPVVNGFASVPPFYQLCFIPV", "test": "Inhibition of CYP2C9 in human liver microsomes in presence of NADPH by LC-MS/MS analysis", "format": "ADME"}, "Klebsiella pneumoniae [5]": {"system": "Klebsiella pneumoniae", "test": "Potentiation of meropenem-induced antibacterial activity against Klebsiella Pneumoniae NR-48977 expressing KPC-2 infected in CD-1 mouse assessed as reduction in bacterial burden co administered with 300 mg/kg, iv meropenem", "format": "functional, organism-based", "conditions": "dose mg/kg 25-100"}, "[6]": {"test": "Plasma protein binding in human assessed as fraction unbound by LC-MS/MS analysis", "format": "ADME, cell-free"}, "[7]": {"test": "Inhibition of bacteria beta lactamase OXA-23 assessed as decrease in enzyme activity using nitrocefin as substrate preincubated for 10 mins followed by substrate addition measured for 10 mins by fluorescence plate reader analysis"}, "Klebsiella pneumoniae [8]": {"system": "Klebsiella pneumoniae", "test": "Potentiation of meropenem-induced antibacterial activity against Klebsiella pneumoniae expressing TEM-OSBL/CTX-M-14/OXA-48 assessed as meropenem MIC at 4 ug/ml by broth microdilution method (reference value: 16 ug/ml)", "format": "functional", "conditions": "dose 4 µg/ml"}, "Cytochrome P450 3A4": {"target": "Cytochrome P450 3A4 (Homo sapiens, UniProt P08684)", "sequence (P08684 whole entry)": "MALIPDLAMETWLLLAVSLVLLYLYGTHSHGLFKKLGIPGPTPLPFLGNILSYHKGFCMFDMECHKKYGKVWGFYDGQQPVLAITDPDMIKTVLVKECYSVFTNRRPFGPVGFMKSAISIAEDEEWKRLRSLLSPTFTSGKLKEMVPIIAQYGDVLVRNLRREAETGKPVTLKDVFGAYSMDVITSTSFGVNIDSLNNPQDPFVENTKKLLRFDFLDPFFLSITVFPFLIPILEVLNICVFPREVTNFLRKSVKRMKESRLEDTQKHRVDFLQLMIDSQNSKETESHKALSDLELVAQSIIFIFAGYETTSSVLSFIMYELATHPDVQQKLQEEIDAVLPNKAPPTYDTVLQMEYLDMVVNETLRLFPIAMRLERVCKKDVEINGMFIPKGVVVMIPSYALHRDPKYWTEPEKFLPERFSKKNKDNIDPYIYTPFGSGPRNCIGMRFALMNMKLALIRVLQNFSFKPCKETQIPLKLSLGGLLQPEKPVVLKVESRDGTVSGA", "test": "Inhibition of CYP3A4 in human liver microsomes in presence of NADPH by LC-MS/MS analysis", "format": "ADME"}, "[9]": {"target": "Voltage-gated inwardly rectifying potassium channel KCNH2 (Homo sapiens, UniProt Q12809)", "sequence (Q12809 whole entry)": "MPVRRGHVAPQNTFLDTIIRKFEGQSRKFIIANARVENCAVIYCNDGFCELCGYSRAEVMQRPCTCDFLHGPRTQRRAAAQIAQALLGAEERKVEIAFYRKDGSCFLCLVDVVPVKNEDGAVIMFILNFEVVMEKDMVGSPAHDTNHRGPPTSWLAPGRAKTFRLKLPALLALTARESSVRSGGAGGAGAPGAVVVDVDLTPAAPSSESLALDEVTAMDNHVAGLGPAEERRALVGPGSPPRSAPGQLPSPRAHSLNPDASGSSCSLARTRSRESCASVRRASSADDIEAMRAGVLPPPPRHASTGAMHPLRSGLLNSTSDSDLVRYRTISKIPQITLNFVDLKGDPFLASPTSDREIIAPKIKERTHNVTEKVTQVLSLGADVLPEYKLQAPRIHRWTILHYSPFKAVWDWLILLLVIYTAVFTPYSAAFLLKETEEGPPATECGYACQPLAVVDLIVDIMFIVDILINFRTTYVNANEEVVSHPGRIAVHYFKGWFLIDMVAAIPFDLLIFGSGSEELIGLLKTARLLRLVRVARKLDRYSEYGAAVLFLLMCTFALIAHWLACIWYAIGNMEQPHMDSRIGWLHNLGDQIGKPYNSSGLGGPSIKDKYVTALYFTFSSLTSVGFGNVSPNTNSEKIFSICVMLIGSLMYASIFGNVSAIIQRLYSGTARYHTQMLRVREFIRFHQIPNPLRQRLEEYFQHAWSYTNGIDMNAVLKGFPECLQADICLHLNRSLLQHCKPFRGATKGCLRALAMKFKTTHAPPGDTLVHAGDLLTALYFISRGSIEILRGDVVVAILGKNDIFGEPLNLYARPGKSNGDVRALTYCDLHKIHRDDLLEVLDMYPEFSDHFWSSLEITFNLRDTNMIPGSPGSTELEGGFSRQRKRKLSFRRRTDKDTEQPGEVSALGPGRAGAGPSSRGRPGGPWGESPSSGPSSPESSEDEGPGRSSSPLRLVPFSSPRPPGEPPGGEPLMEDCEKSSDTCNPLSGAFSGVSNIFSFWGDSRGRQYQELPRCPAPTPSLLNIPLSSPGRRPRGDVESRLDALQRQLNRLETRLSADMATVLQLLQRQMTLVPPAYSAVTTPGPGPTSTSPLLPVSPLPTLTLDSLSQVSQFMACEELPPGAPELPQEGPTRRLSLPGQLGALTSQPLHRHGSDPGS", "test": "Inhibition of human ERG by patch-clamp assay"}, "[10]": {"test": "Half life in rat at 1 mg/kg, iv", "format": "ADME, organism-based", "conditions": "in vivo"}, "Acinetobacter baumannii": {"system": "Acinetobacter baumannii", "test": "Inhibition of beta lactamase OXA in carbapenem-resistant Acinetobacter baumannii assessed as meropenem maximum concentration required for antibacterial activity at 4 ug/ml by broth microdilution method (Rvb > 32 ug/ml)", "conditions": "dose 4.0 µg/ml"}, "Klebsiella pneumoniae [11]": {"system": "Klebsiella pneumoniae", "test": "Antibacterial activity against Klebsiella pneumoniae expressing TEM-1/SHV-11/KPC-3 by broth microdilution method", "format": "functional"}, "[12]": {"test": "Genotoxicity in Salmonella typhimurium by Ames test", "format": "toxicity", "conditions": "salmonella enterica subsp. enterica serovar typhimurium"}, "[13]": {"test": "Plasma protein binding in dog assessed as fraction unbound by LC-MS/MS analysis", "format": "ADME, cell-free, Canis lupus familiaris"}, "[14]": {"test": "Stability in rat plasma assessed as parent compound remaining after 1 hr", "format": "ADME, cell-free", "conditions": "read-out: Stabilty"}, "[15]": {"test": "Inhibition of beta lactamase CTXM-15 in Enterobacter cloacae assessed as decrease in enzyme activity using nitrocefin as substrate preincubated for 10 mins followed by substrate addition measured for 10 mins by fluorescence plate reader analysis"}, "Enterobacter [16]": {"system": "Enterobacter", "test": "Inhibition of beta lactamase KPC in carbapenem-resistant Enterobacter assessed as meropenem-induced antibacterial activity by measuring meropenem MIC90 at 4 ug/ml by broth microdilution method (Rvb >32 ug/ml)", "conditions": "dose 4.0 µg/ml"}, "[17]": {"test": "Stability in mouse plasma assessed as parent compound remaining after 1 hr", "format": "ADME, cell-free", "conditions": "read-out: Stabilty"}}, "note": "pIC50: −log10 of the molar value."}
{"smiles": "O=C1N2C[C@@H](CC[C@H]2F)N1OS(=O)(=O)[O-].[Na+]", "values": [{"measurement": "Activity", "setting": "Enterobacter [1]", "result": 16, "unit": "µg/mL"}, {"measurement": "remaining at 1 h", "setting": "[2]", "result": 79, "unit": "%"}, {"measurement": "MIC", "setting": "Klebsiella pneumoniae [3]", "result": 1, "unit": "µg/mL"}, {"measurement": "pIC50", "setting": "[4]", "result": 6.76}, {"measurement": "pIC50", "setting": "Cytochrome P450 2C9", "result": "< 4.30"}, {"measurement": "Activity", "setting": "Klebsiella pneumoniae [5]", "result": "Dose-dependent effect"}, {"measurement": "fraction unbound", "setting": "[6]", "result": "> 0.93"}, {"measurement": "pIC50", "setting": "[7]", "result": 7.30}, {"measurement": "MIC", "setting": "Klebsiella pneumoniae [8]", "result": 0.25, "unit": "µg/mL"}, {"measurement": "pIC50", "setting": "Cytochrome P450 3A4", "result": "< 4.30"}, {"measurement": "pIC50", "setting": "[9]", "result": "< 4.00"}, {"measurement": "half-life", "setting": "[10]", "result": 38.4, "unit": "min"}, {"measurement": "Activity", "setting": "Acinetobacter baumannii", "result": "> 32", "unit": "µg/mL"}, {"measurement": "MIC", "setting": "Klebsiella pneumoniae [11]", "result": 128, "unit": "µg/mL"}, {"measurement": "Activity", "setting": "[12]", "result": "Non-Toxic"}, {"measurement": "fraction unbound", "setting": "[13]", "result": "> 0.93"}, {"measurement": "remaining at 1 h", "setting": "[14]", "result": 55, "unit": "%"}, {"measurement": "pIC50", "setting": "[15]", "result": 8.70}, {"measurement": "MIC90", "setting": "Enterobacter [16]", "result": 1, "unit": "µg/mL"}, {"measurement": "remaining at 1 h", "setting": "[17]", "result": 90, "unit": "%"}]}
